| Compound | melting point [°C] |
| --- | --- |
| CC(=O)CCNc1cc(C(=O)O)cc(S(N)(=O)=O)c1Oc1ccccc1 | 215 to 216 |
| CC(=O)N(O)CCOc1ccc(-c2ccc(C#N)cc2)cc1 | 174 to 175 |
| CCOC(=O)c1ccccc1NC(=O)c1oc2nn(C(C)C)c(C)c2c1C | 155 to 158 |
| CN1C(C(=O)Nc2cccccc2=O)=C(OC(=O)C=Cc2ccccc2)c2sccc2S1(=O)=O | 167 to 170 |
| CNc1nc(OC)ccc1[N+](=O)[O-] | 152 to 153 |
| O=C(C[C@@H](CCCC1CCCCC1)c1nc(Cn2cncn2)no1)NO | 118 to 120 |
| CSc1ccc(/C=C2/C(CCN(O)C(N)=O)=C(C)c3ccccc32)cc1 | 120 to 122 |
| OC(CCN1CC=C(c2ccccc2)CC1)c1ccc(Cl)cc1Cl (configuration not stated) | 103 to 104 |
| CC1(C)Cc2nc3ccccc3n2C(=O)N1 | 205 to 210 |
| COc1ccc2c(c1)C(c1ccc(N)cc1)=NN=C(C)C2 | 136 to 138 |
| O=C(CN1CCC(Cc2ccccc2)CC1)Nc1ccc2[nH]c(=S)oc2c1 | 183 to 184 |
| COCCOc1ccc(CCCOC(=O)NS(=O)(=O)NCCc2cccs2)c(Oc2ncc(C(F)(F)F)cc2Cl)c1 | 118 |
| COc1nc(-c2ccccc2F)c2ccsc2n1 | 175 to 176 |
| O=C(c1ccnc(Cl)c1)N1CC(c2ccc(F)cc2)C2(CCN(C/C=C/c3ccc(Cl)cc3)CC2)C1 (configuration not stated) | 79 to 81 |
| COc1cc(Br)c(C(C)=O)cc1OC(C)C | 59 to 59.9 |
| Nc1nnc(C(F)(F)Oc2ccccc2)s1 | 149 to 151 |
| CCOC(=O)Cc1ccc(NC(=O)C(COc2cccnc2)NS(=O)(=O)c2ccc(Br)cc2)cc1 (racemic) | 168 to 171 |
| CCCN=C(N)Nc1ccnc(OCCCO)n1 | 183 to 184 |
| COc1ccc(Cn2cc([N+](=O)[O-])c(C(N)=O)n2)cc1 | 192 to 193 |
| CC1(c2cc(Cl)nnc2Cl)CC1(Cl)Cl (configuration not stated) | 78 to 79 |
| CCOC(=O)c1c(NCCC(=O)c2ccccc2)c2c(Cl)cc(Cl)cc2n1C(=O)OC(C)(C)C | 130 to 131 |
| N#Cc1ccc2c(CCC3CCN(Cc4ccccc4)CC3)noc2c1 | 113 to 114 |
| CCCc1c(OCc2cccc(COc3ccccc3CCC(=O)O)c2)ccc2c1OCCC2=O | 132 to 135 |
| COc1cc(Nc2nccc(-c3cccc(NCc4cccnc4)c3)n2)cc(OC)c1OC | 78 to 80 |
| CC(=O)N(C)c1ccc2sc3ccccc3c(=O)c2c1 | 246 to 248 |

| Compound | melting point [°C] |
| --- | --- |
| COC(=O)c1ccc2c([N+](=O)[O-])cc3c(c2c1)C(CCl)CN3 (configuration not stated) | 161 to 163 |
| CC(=O)Nc1ccc(-c2ccc(CC34CCCN3C(=O)N(c3cc(Cl)cc(Cl)c3)C4=O)cc2)cc1 (configuration not stated) | 124 |
| CC(C)N(C[C@H](O)[C@H](Cc1ccccc1)NC(=O)[C@H](CC(N)=O)NC(=O)c1ccccn1)NC(=O)OC(C)(C)C | 101 to 108 |
| CN(c1cccc2cc(C3=NCC(C)(CCO)S3)[nH]c12)S(=O)(=O)c1cccs1 (configuration not stated) | 149 to 150 |
| COc1cc(CCl)nc(N)n1 | 89 to 90 |
| CN1CCN(c2n[nH]c(-c3ccc(F)cc3)c2-c2ccncc2)CC1 | 238 to 240 |
| O=C1NCC(c2ccc3[nH]c(-c4ccncc4)cc3c2)=NN1 | 313 to 316 |
| C[C@H]1CCCN(C(=O)[C@@H]2Cc3ccccc3N2c2ccc(=O)n(C)n2)C1 | 231 to 233 |
| CCOC(Cc1ccc(OCCN2c3ccccc3Oc3ccccc32)cc1)C(=O)O (configuration not stated) | 86 to 102 |
| CCC(=O)SCC(Cc1ccccc1)C(=O)Nc1cccc(C(=O)O)c1C (configuration not stated) | 163 to 165 |
| O=[N+]([O-])c1ccc(Cl)cc1Nc1cccc(Cl)c1 | 112 |
| CCCCc1nc2ccccc2n1Cc1ccc(C(=O)O)cc1F | 224 to 226 |
| Fc1ccc(Nc2ncnc3ccc(-c4ccsc4)cc23)cc1Cl | 195 to 197 |
| Cc1nc(-c2cccc(-n3cnc4cc(-c5ccoc5)ccc43)c2)cs1 | 136 to 138 |
| NS(=O)(=O)c1cc(S(N)(=O)=O)c(C(Cl)=C(Cl)Cl)cc1NCc1ccccc1 | 188 to 190 |
| CCOC(=O)C1=C(COCc2nnn(CCN)n2)NC(C)=C(C(=O)OC)C1c1ccccc1Cl (configuration not stated) | 126 to 127 |
| Cn1c(=O)oc2cc(C(=O)CCN3CCN(c4ccc(F)cc4)CC3)ccc21 | 149 |
| COc1ccc(Cl)c(Oc2c(Cl)nc(C)nc2NS(=O)(=O)c2ccc(C(C)(C)C)cc2)c1 | 182 |
| COc1cccc(Oc2c(NS(=O)(=O)c3ccc(C(C)(C)C)cc3)ncnc2OCCCO)c1 | 113 to 114 |
| COc1ccc2oc(-c3ccccc3)c(C)c2c1 | 106 to 107 |
| CCCCCCCCCCCCCCCCCCOCCOCCOC(=O)NCc1ccccn1 | 61 to 62 |
| CCCc1ccccc1OCCCOc1ccc2c(=O)cc(C(=O)O)oc2c1 | 164 to 166 |
| CCOCc1cc2ccccc2oc1=Nc1ccccc1 | 71 to 72 |
| CC(C)(C)OC(=O)N1CCN(C2=Nc3ccccc3Sc3ccccc32)CC1 | 127 to 130 |
| CCCc1ccc(Oc2ccc3c(c2)C=C(C(=O)O)CCS3(=O)=O)cc1 | 147 to 149 |

| Compound | melting point [°C] |
| --- | --- |
| CC1(CC(=O)O)OCCc2c1[nH]c1ccccc21 (configuration not stated) | 87 to 90 |
| CCOC(=O)c1c(-c2ccc(F)cc2)c2ccccc2n1C | 61 to 62 |
| CCCC(=O)OCc1ccc2oc(=O)c(C(=O)Oc3cncc(Cl)c3)cc2c1 | 146 to 148 |
| CNC(=O)C(C)Oc1ccc(Oc2ccc(Cl)cc2)cc1 (configuration not stated) | 117 to 118 |
| CCOc1ccc(OCc2ccc(OCc3nc(-c4ccccc4)oc3C)cc2)c(CC(=O)O)c1 | 122 to 123 |
| COc1cc(Oc2cccc(OC(F)(F)F)c2)nc(C(=O)O)c1 | 64 to 66 |
| COC(=O)CCCc1cc2c(Cl)c(C#N)cnc2s1 | 55 to 57 |
| CC(C)c1cccc(C(C)C)c1N=C(c1ccccc1)N(CC(=O)c1ccccc1)c1c(C(C)C)cccc1C(C)C | 142 to 143 |
| CCOC(=O)NN=Cc1cc(-n2c(=O)cc(C(F)(F)F)n(C)c2=O)ccc1Cl | 111 to 116 |
| O=[N+]([O-])c1ccc(CO)c([N+](=O)[O-])c1 | 105 to 110 |
| NC(=O)c1cc(OCCNCC(O)c2ccccn2)ccc1O (configuration not stated) | 169 to 170 |
| COc1ccc2nc(SCc3nccc(OC)c3OC)[nH]c2n1 | 157 |
| Cc1ccc2[nH]nc(S(C)=O)c(=O)c2c1 (configuration not stated) | 265 to 267 |
| O=S1(=O)c2ccccc2Nc2c1c(O)c(O)c1ccccc21 | 330 |
| CC(C)c1cccc(C(C)C)c1NC(=O)C1c2ccccc2COc2ccc(C(=O)O)cc21 (configuration not stated) | 289 to 290 |
| CCCNC(=O)NCCc1c[nH]c2ccc(OC)cc12 | 79 to 80 |
| O=C1CCCN1c1ccc(F)cc1F | 95 to 97 |
| COc1ccc(S(=O)(=O)N2c3ccc(Cl)cc3C(O)(c3ccccc3Cl)C2C(=O)N2CCN(C)CC2)cc1OC (configuration not stated) | 120 |
| COc1ccc(S(=O)(=O)N2c3ccc(Br)cc3-c3ccccc3C2C)cc1C (configuration not stated) | 219 to 221 |
| Cc1cc(N(C)CC(=O)N2CCN(Cc3ccc4c(c3)OCO4)CC2)ccc1Oc1ccc([N+](=O)[O-])cn1 | 142 to 143 |
| Nc1c([N+](=O)[O-])sc2ccc([N+](=O)[O-])cc12 | 288 to 291 |
| Cc1ccc2c(c1)C=Cc1sc(C)nc1C2c1cn(CCN2CCCC2)c(=O)[nH]c1=S (configuration not stated) | 198 |
| O=Cc1ccc(-c2cc(Br)ccn2)o1 | 105 to 106 |
| C=CNC(=O)n1sc(OCC)nc1=O | 123 |
| Cc1cccc(SCc2ccc3nc(NC4CCN(C)CC4)n(Cc4nc(C)ccc4O)c3c2)c1 | 202 |

| Compound | melting point [°C] |
| --- | --- |
| OCC(O)COc1ccc(NNC(c2ccccc2)(c2ccccc2)c2ccccc2)nn1 (racemic) | 174 to 176 |
| COc1ccc2c(c1)c(CC(=O)O[C@H]1CO[C@H]3[C@H]1OC[C@H]3O[N+](=O)[O-])c(C)n2C(=O)c1ccc(Cl)cc1 | 159 to 160 |
| CCc1cccc(CC(=O)O)c1OCCCn1cc(C(=O)NCc2ccc(C(F)(F)F)cc2)c(OC(C)C)n1 | 108 |
| COC1C=C(C)C(=O)CC(C)(C)C1OC(=O)c1ccc(N)cc1N (configuration not stated) | 178 to 179 |
| CCOC(=O)N1CCc2nc3cc(C)ccc3c(C)c2CC1 | 121 |
| NC(=S)C(c1ccc(Cl)cc1)c1c(Cl)cc(-n2ncc(=O)[nH]c2=O)cc1Cl (configuration not stated) | 263 |
| Cc1cc(C)c(/C=C2\C(=O)N(CO)c3ccccc32)[nH]1 | 196 to 200 |
| CC(=O)Nc1ncnc2[nH]nc(C#N)c12 | > 360 |
| CC(=O)Nc1ncc(SCC(=O)OC(C)(C)C)s1 | 162 to 163 |
| CCOC(=O)/C=C/c1ccc(OCCCS(C)(=O)=O)cc1Oc1ncc(C(F)(F)F)cc1Cl | 191 |
| CCc1nc2c(n1C(CC)CC)C(=O)N(C)CN2c1ccc(Cl)cc1Cl | 132 to 133 |
| COC(=O)c1ncn2c1[C@@H]1CCCN1C(=O)c1sccc1-2 | 192 to 193 |
| O=C(Nc1ccc(NC(=O)OCCCl)c([N+](=O)[O-])n1)OCCCl | 118 to 119 |
| O=C(CC1CCCC1)c1c(-c2ccc3cc(O)ccc3c2)oc2ccccc12 | 189 to 190 |
| CC(=O)N1CCC(CCCC(=O)c2ccc3c(c2)CCN(C(=O)C(F)(F)F)CC3)CC1 | 101 to 102 |
| Cc1csc(-c2ccc3c(ccn3S(=O)(=O)c3ccccc3)c2)n1 | 209 to 210 |
| COC(=O)c1ccc(-c2ccc3cc(OS(=O)(=O)C(F)(F)F)c(C45CC6CC(CC(C6)C4)C5)cc3c2)cc1 | 226 to 227 |
| N#Cc1cnn2c(-c3cccc(F)c3)ccnc12 | 222 to 224 |
| Cc1nn(C)c(C2=NC(C)C(C)N2)c1N (configuration not stated) | 250 |
| CCCC(=O)c1cnc2c(C3CO3)cccc2c1Nc1ccccc1C (configuration not stated) | 114 to 116 |
| Oc1ccc2c(c1)CCC(n1cc[nH]c1=S)C2 (configuration not stated) | 240 to 241 |
| COc1nc(Cl)cnc1NS(=O)(=O)c1cccnc1-c1ccc(CC(C)C)cc1 | 156 to 157 |

From a melting point compilation (Tetko et al.; mined from patent text by program, amines drawn as free bases though some values may be those of a salt)
